Reference: ChEMBL document CHEMBL1128980, “(R)-3-(6-chloro-1-isopropylbenzimidazole-4-carboxamido)quinuclidine: A high affinity ligand for the (R)-zacopride binding site” (Bioorg Med Chem Lett, 1996)

Key:
[1] = biological target: T1, 5-hydroxytryptamine receptor 3A (Homo sapiens, UniProt P46098); test: Binding affinity for 5-hydroxytryptamine 3 receptor by displacement of [3H](R)-zacopride from ondansetron-treated NG-108-15 cell membranes
T1 sequence (P46098 whole entry): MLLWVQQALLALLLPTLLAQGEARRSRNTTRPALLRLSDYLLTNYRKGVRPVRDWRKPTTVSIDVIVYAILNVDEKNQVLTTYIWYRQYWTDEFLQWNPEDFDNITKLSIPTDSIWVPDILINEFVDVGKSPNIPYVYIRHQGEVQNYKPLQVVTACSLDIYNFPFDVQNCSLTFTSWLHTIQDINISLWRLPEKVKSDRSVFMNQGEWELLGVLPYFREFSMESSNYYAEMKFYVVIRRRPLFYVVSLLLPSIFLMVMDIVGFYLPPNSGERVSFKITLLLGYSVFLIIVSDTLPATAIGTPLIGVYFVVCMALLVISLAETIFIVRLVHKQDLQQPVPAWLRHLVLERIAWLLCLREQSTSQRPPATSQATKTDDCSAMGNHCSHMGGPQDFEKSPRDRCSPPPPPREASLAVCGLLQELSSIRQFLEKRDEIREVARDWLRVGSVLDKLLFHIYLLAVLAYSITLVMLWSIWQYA

[2] = biological target: 5-hydroxytryptamine receptor 4 (Cavia porcellus, UniProt O70528); test: Binding affinity for 5-hydroxytryptamine 4 receptor by displacement of [3H]GR-113808 from guinea pig brain striatum.
Sequence of 5-hydroxytryptamine receptor 4 (O70528 whole entry): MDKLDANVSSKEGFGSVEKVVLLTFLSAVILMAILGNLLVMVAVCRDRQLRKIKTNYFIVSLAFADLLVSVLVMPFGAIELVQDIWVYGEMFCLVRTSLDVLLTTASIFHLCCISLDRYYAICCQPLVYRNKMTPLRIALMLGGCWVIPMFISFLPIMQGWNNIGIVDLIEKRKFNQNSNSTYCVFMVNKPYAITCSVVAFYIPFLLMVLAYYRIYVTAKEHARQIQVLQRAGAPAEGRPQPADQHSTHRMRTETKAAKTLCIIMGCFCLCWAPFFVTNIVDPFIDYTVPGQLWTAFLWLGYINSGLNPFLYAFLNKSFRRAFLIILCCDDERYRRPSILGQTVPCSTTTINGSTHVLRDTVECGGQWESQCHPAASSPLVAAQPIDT

[3] = biological target: T1, 5-hydroxytryptamine receptor 3A; test: Binding affinity for 5-hydroxytryptamine 3 receptor by displacement of [3H]-BRL 43694 from NG-108-15 cell membranes
[4] = biological target: T2, Serotonin 3 (5-HT3) receptor (Rattus norvegicus, UniProt P35563+Q9JJ16); test: Binding affinity for 5-hydroxytryptamine 3 receptor by displacement of racemic [3H]zacopride from rat cortex
T2 sequence (P35563 whole entry): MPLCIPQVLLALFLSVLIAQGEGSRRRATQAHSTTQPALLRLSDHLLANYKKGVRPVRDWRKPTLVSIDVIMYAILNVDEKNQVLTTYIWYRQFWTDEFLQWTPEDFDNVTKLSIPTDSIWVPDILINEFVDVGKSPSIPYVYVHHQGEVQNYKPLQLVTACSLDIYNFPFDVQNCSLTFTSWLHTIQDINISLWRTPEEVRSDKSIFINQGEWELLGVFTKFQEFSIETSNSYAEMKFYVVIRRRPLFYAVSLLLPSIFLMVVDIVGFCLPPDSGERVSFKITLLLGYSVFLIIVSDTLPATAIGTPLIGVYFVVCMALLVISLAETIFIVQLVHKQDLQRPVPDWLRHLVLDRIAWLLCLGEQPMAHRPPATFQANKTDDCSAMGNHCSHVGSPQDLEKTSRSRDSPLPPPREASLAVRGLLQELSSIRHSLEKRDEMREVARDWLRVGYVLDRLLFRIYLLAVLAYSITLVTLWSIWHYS
T2 sequence (Q9JJ16 whole entry): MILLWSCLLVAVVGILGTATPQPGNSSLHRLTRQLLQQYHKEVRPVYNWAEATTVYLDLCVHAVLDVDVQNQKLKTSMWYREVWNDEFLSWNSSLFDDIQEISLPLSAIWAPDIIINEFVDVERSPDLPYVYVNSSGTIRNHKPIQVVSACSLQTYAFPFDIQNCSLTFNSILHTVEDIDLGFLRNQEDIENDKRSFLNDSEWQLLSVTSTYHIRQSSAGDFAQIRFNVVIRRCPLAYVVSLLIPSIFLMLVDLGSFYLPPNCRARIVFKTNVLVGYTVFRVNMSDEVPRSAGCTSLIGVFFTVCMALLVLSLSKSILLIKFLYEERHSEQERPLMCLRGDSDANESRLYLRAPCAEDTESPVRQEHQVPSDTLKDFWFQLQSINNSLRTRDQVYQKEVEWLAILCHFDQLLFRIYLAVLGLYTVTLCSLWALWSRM

Structure (SMILES) | Ki [1] | Ki [2] | Ki [3] | Ki [4]
CC(C)n1cnc2c(C(=O)NC3CC4CCC(C3)N4C)cc(Cl)cc21 (configuration not stated) | 20 nM | 158 nM | 1 nM | –
CC(C)n1cnc2c(C(=O)N[C@H]3CN4CCC3CC4)cc(Cl)cc21 | – | 24 nM | – | –
COc1cc(N)c(Cl)cc1C(=O)N[C@@H]1CN2CCC1CC2 | – | 437 nM | – | –
COc1cc(N)c(Cl)cc1C(=O)N[C@H]1CN2CCC1CC2 [(R)ZACOPRIDE] | – | 2820 nM | – | 3.72 nM
